Results taken from ChEMBL document CHEMBL1201862, “PubChem BioAssay data set” (2004).
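A five-concentration, 48-hour dose response in 96-well plates underlies each endpoint, interpolated linearly between surrounding concentrations. Here, GI50 denotes the concentration required for 50% inhibition of growth.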 Calls of active or inactive are those of the source. Cut-off read from the data, not from the text of the source: active = GI50 up to about 1.1 µM and inactive = higher.

Experiments:
Assay in all cases: NCI tumour cell line growth inhibition, 48 h
[1] = test system: PC-3
[2] = test system: K562
[3] = test system: U-251
[4] = test system: MCF7
[5] = test system: OVCAR-8
[6] = test system: NCI-H460
[7] = test system: HCT-116
[8] = test system: SR
[9] = test system: UACC-257
[10] = test system: SNB-75
[11] = test system: KM12
[12] = test system: SW-620
[13] = test system: UO-31
[14] = test system: M14
[15] = test system: OVCAR-4
[16] = test system: SF-295
[17] = test system: ACHN
[18] = test system: SK-MEL-28
[19] = test system: MOLT-4

Q: For `CC(=O)C1=C(C)N(c2ccc(C)cc2)C2(O)C=CC(=O)C3C(=O)N(c4ccccc4)C(=O)C132` (centres undefined), which GI50 [1] is on record?
A: 22.1 µM (inactive)

Q: What about the GI50 [2] of the same molecule?
A: 3.42 µM (inactive)

Q: What about the GI50 [3] of the same molecule?
A: 17.7 µM (inactive)

Q: What about the GI50 [4] of the same molecule?
A: 8.3 µM (inactive)

Q: And the GI50 [5]?
A: 23.3 µM (inactive)

Q: What about the GI50 [6] of the same molecule?
A: 29.4 µM (inactive)

Q: What about the GI50 [7] of the same molecule?
A: 6.49 µM (inactive)

Q: And the GI50 [8]?
A: 2.94 µM (inactive)

Q: And the GI50 [9]?
A: 17.6 µM (inactive)

Q: What about the GI50 [10] of the same molecule?
A: 24.4 µM (inactive)

Q: And the GI50 [11]?
A: 21.9 µM (inactive)

Q: What about the GI50 [12] of the same molecule?
A: 4.45 µM (inactive)

Q: And the GI50 [13]?
A: 11.2 µM (inactive)

Q: What about the GI50 [14] of the same molecule?
A: 24.4 µM (inactive)

Q: What about the GI50 [15] of the same molecule?
A: 20.8 µM (inactive)

Q: What about the GI50 [16] of the same molecule?
A: 14.4 µM (inactive)

Q: What about the GI50 [17] of the same molecule?
A: 15.9 µM (inactive)

Q: What about the GI50 [18] of the same molecule?
A: 19.5 µM (inactive)

Q: Which results are given for `BrCC(Br)(c1ccccc1)c1ccccc1-c1cc(-c2ccccc2)cc(-c2ccccc2)n1` (centres undefined)?
A: GI50 [1]: 2.59 µM (inactive); GI50 [2]: 0.893 µM (active); GI50 [3]: 1.48 µM (inactive); GI50 [4]: 1.09 µM (active); GI50 [5]: 3.06 µM (inactive); GI50 [6]: 3.38 µM (inactive); GI50 [7]: 2.81 µM (inactive); GI50 [8]: 3.89 µM (inactive); GI50 [9]: 2.04 µM (inactive); GI50 [10]: 1.27 µM (inactive); GI50 [11]: 3.13 µM (inactive); GI50 [12]: 3.16 µM (inactive); GI50 [13]: 10.7 µM (inactive); GI50 [14]: 4.38 µM (inactive); GI50 [15]: 4.05 µM (inactive); GI50 [16]: 2.9 µM (inactive); GI50 [17]: 7.01 µM (inactive); GI50 [18]: 4.46 µM (inactive); GI50 [19]: 3.26 µM (inactive)

Q: `Cc1cc(S(=O)(=O)Nc2nc(Nc3ccccc3)n[nH]2)c(SCC(=O)O)cc1Cl` was tested. Which GI50 [1] did it give?
A: > 100 µM (inactive)

Q: And the GI50 [2]?
A: > 100 µM (inactive)

Q: What about the GI50 [3] of the same molecule?
A: > 100 µM (inactive)

Q: What about the GI50 [4] of the same molecule?
A: > 100 µM (inactive)

Q: And the GI50 [5]?
A: > 100 µM (inactive)

Q: And the GI50 [6]?
A: > 100 µM (inactive)

Q: And the GI50 [7]?
A: > 100 µM (inactive)

Q: What about the GI50 [8] of the same molecule?
A: > 100 µM (inactive)

Q: And the GI50 [9]?
A: > 100 µM (inactive)

Q: What about the GI50 [10] of the same molecule?
A: > 100 µM (inactive)

Q: And the GI50 [11]?
A: > 100 µM (inactive)

Q: And the GI50 [12]?
A: > 100 µM (inactive)

Q: What about the GI50 [13] of the same molecule?
A: > 100 µM (inactive)

Q: And the GI50 [14]?
A: > 100 µM (inactive)

Q: What about the GI50 [15] of the same molecule?
A: > 100 µM (inactive)

Q: And the GI50 [16]?
A: > 100 µM (inactive)

Q: And the GI50 [17]?
A: > 100 µM (inactive)

Q: And the GI50 [18]?
A: > 100 µM (inactive)

Q: And the GI50 [19]?
A: > 100 µM (inactive)

Q: For `CCOC(=O)c1c(Sc2ccc([N+](=O)[O-])cc2[N+](=O)[O-])nc2c3ccccc3ccn12`, which GI50 [1] is on record?
A: > 100 µM (inactive)

Q: What about the GI50 [2] of the same molecule?
A: > 100 µM (inactive)

Q: What about the GI50 [3] of the same molecule?
A: 31.8 µM (inactive)

Q: And the GI50 [4]?
A: > 100 µM (inactive)

Q: What about the GI50 [5] of the same molecule?
A: 33.8 µM (inactive)

Q: What about the GI50 [6] of the same molecule?
A: > 55.7 µM (inactive)

Q: And the GI50 [7]?
A: > 91 µM (inactive)

Q: What about the GI50 [8] of the same molecule?
A: > 100 µM (inactive)

Q: What about the GI50 [9] of the same molecule?
A: > 100 µM (inactive)

Q: What about the GI50 [10] of the same molecule?
A: 13.3 µM (inactive)

Q: What about the GI50 [11] of the same molecule?
A: > 100 µM (inactive)

Q: And the GI50 [12]?
A: > 100 µM (inactive)

Q: And the GI50 [13]?
A: > 41.9 µM (inactive)

Q: What about the GI50 [14] of the same molecule?
A: > 100 µM (inactive)

Q: What about the GI50 [15] of the same molecule?
A: 10.7 µM (inactive)

Q: What about the GI50 [16] of the same molecule?
A: 28.7 µM (inactive)

Q: What about the GI50 [17] of the same molecule?
A: 19.3 µM (inactive)

Q: What about the GI50 [18] of the same molecule?
A: > 100 µM (inactive)

Q: What about the GI50 [19] of the same molecule?
A: > 100 µM (inactive)

Q: With `N#C[BH2-][n+]1cn(C2CC(O)C(COP(=O)(O)OC3CC(n4cnc5c(N)ncnc54)OC3CO)O2)c2nc(N)[nH]c(=O)c21` (centres undefined) as the molecule, how does the GI50 [1] read?
A: > 100 µM (inactive)

Q: What about the GI50 [3] of the same molecule?
A: > 100 µM (inactive)

Q: And the GI50 [4]?
A: > 100 µM (inactive)

Q: And the GI50 [5]?
A: > 100 µM (inactive)

Q: What about the GI50 [6] of the same molecule?
A: > 100 µM (inactive)

Q: What about the GI50 [7] of the same molecule?
A: > 100 µM (inactive)

Q: What about the GI50 [8] of the same molecule?
A: > 100 µM (inactive)

Q: What about the GI50 [9] of the same molecule?
A: > 100 µM (inactive)

Q: What about the GI50 [10] of the same molecule?
A: > 100 µM (inactive)

Q: And the GI50 [11]?
A: > 100 µM (inactive)

Q: What about the GI50 [12] of the same molecule?
A: > 100 µM (inactive)

Q: And the GI50 [13]?
A: > 100 µM (inactive)

Q: And the GI50 [14]?
A: > 100 µM (inactive)

Q: And the GI50 [15]?
A: > 100 µM (inactive)

Q: And the GI50 [16]?
A: > 100 µM (inactive)

Q: And the GI50 [17]?
A: > 100 µM (inactive)

Q: And the GI50 [18]?
A: > 100 µM (inactive)

Q: `O=c1[nH]c2c(Nc3c4ccccc4nc4ccccc34)c([N+](=O)[O-])c(Nc3c4ccccc4nc4ccccc34)c([N+](=O)[O-])c2[nH]1` was tested. Which GI50 [1] did it give?
A: 2.05 µM (inactive)

Q: What about the GI50 [2] of the same molecule?
A: 2.59 µM (inactive)

Q: What about the GI50 [3] of the same molecule?
A: 2.33 µM (inactive)

Q: What about the GI50 [4] of the same molecule?
A: 1.53 µM (inactive)

Q: And the GI50 [5]?
A: 1.21 µM (inactive)

Q: What about the GI50 [6] of the same molecule?
A: 1.33 µM (inactive)

Q: And the GI50 [7]?
A: 0.687 µM (active)

Q: And the GI50 [8]?
A: 0.741 µM (active)

Q: And the GI50 [9]?
A: 2.41 µM (inactive)

Q: What about the GI50 [10] of the same molecule?
A: 2.48 µM (inactive)

Q: And the GI50 [11]?
A: 2.14 µM (inactive)

Q: And the GI50 [12]?
A: 1.17 µM (inactive)

Q: And the GI50 [13]?
A: 1.24 µM (inactive)

Q: And the GI50 [14]?
A: 1.84 µM (inactive)

Q: And the GI50 [15]?
A: 2.35 µM (inactive)

Q: And the GI50 [16]?
A: 2.41 µM (inactive)

Q: What about the GI50 [17] of the same molecule?
A: 0.6 µM (active)

Q: What about the GI50 [18] of the same molecule?
A: 3.13 µM (inactive)

Q: What about the GI50 [19] of the same molecule?
A: 0.38 µM (active)

Q: Which GI50 [1] does the source give for `O=C1CCC[C@@H]2NC[C@@H](c3ccc4c(c3)OCO4)[C@H]12` here?
A: > 25 µM (inactive)

Q: And the GI50 [2]?
A: > 25 µM (inactive)

Q: What about the GI50 [3] of the same molecule?
A: > 25 µM (inactive)

Q: What about the GI50 [4] of the same molecule?
A: > 25 µM (inactive)

Q: And the GI50 [5]?
A: > 25 µM (inactive)

Q: What about the GI50 [6] of the same molecule?
A: > 25 µM (inactive)

Q: And the GI50 [7]?
A: > 25 µM (inactive)

Q: And the GI50 [8]?
A: > 25 µM (inactive)

Q: And the GI50 [9]?
A: > 25 µM (inactive)

Q: What about the GI50 [10] of the same molecule?
A: > 25 µM (inactive)

Q: And the GI50 [11]?
A: > 25 µM (inactive)

Q: And the GI50 [13]?
A: > 25 µM (inactive)

Q: And the GI50 [14]?
A: > 25 µM (inactive)

Q: And the GI50 [15]?
A: > 25 µM (inactive)

Q: What about the GI50 [16] of the same molecule?
A: > 25 µM (inactive)

Q: And the GI50 [17]?
A: > 25 µM (inactive)

Q: And the GI50 [18]?
A: > 25 µM (inactive)

Q: What about the GI50 [19] of the same molecule?
A: > 25 µM (inactive)
